These results are taken from patent US10577382B2, “Fused heterocyclic compound” (TAKEDA PHARMACEUTICAL COMPANY LIMITED, priority 2016, dated 2020).

For assay [1], the system named is HCT116 cells. Description: Growth inhibitory activity using HCT116 cells (Cell Titer-Glo). Format: cell-based, human. As to conditions: compound 1 μM, 3 days; for inhibition at 1 µM: Homo sapiens, HCT-116, 72 h, read-out: Cell growth inhibition ratio at compound concentration of 1 μM. The method, then:
HCT 116 cells (ATCC) were seeded in a 384-well plate at a density of 6×10^2 cells/well, and cultured overnight in a cell culture medium McCoy's 5A (Thermo Fisher Scientific) containing 10% FBS (fetal bovine serum) and 1% penicillin/streptomycin. The dissolved test compound was added in the cell medium, and the cell medium was left standing in a CO2 incubator (37° C.) for 3 days. A Cell Titer-Glo solution (Promega Corporation) was added, the mixture was stirred at room temperature for 10 minutes, and the emission value was measured by Envision (PerkinElmer). The inhibition ratio (%) of HCT116 cell growth by the test compound was calculated in accordance with the following expression. Inhibition ratio (%)=(1−(count of test compound−blank)÷(control−blank))×100
The count of the HCT116 cell suspension without addition of the compound was described as a control, and the count without addition of the compound and addition of HCT116 cells was described as a blank. The concentration at which the inhibition ratio was 50% was defined as an IC50 value.

Assay [2] has as its target T1, CLK2 enzyme (Homo sapiens, UniProt P49760).
T1 construct: purchased Thermo Fisher Scientific
Description: Measurement of CLK2 inhibitory activity (LANCE time-resolved fluorescence, ULight-labeled MBP peptide). Type of assay: biochemical. The note with it: compound 1 μM; for inhibition at 1 µM: ATP 1 mM, read-out: CLK2 activity inhibition ratio at compound concentration of 1 μM (ATP 1 mM). The procedure:
A test compound dissolved in DMSO was added to a reaction solution (50 mM HEPES (pH: 7.5), 10 mM MgCl2, 1 mM EGTA, 2 mM DTT, 0.01% Tween 20, 0.01% BSA) containing a CLK2 enzyme (Thermo Fisher Scientific) and an ULight-labeled MBP peptide (PerkinElmer), and the mixture was then reacted at room temperature for 10 minutes. An ATP solution was added to a final concentration of 1 mM to initiate an enzyme reaction, and the reaction was carried out at room temperature for 60 minutes. A europium-labeled anti-phosphorylated MBP antibody (PerkinElmer) and a LANCE Detection buffer (PerkinElmer) containing EDTA with a final concentration of 20 mM were added to stop the reaction, the mixture was left standing for 60 minutes, and the time-resolved fluorescence value (excitation 320 nm, and emission 615 nm and 665 nm) was measured by Envision (PerkinElmer). The inhibition ratio (%) of CLK2 by the test compound was calculated in accordance with the following expression. Inhibition ratio (%)=(1−(count of test compound−blank)÷(control−blank))×100
The count of the CLK2 enzyme reaction solution without addition of the compound was described as a control, and the count without addition of the compound and addition of the CLK2 enzyme was described as a blank. The concentration at which the inhibition ratio was 50% was defined as an IC50 value.
For orientation: Time-resolved FRET reads energy transfer from a long-lived donor to a nearby acceptor.

T1 sequence (P49760 whole entry): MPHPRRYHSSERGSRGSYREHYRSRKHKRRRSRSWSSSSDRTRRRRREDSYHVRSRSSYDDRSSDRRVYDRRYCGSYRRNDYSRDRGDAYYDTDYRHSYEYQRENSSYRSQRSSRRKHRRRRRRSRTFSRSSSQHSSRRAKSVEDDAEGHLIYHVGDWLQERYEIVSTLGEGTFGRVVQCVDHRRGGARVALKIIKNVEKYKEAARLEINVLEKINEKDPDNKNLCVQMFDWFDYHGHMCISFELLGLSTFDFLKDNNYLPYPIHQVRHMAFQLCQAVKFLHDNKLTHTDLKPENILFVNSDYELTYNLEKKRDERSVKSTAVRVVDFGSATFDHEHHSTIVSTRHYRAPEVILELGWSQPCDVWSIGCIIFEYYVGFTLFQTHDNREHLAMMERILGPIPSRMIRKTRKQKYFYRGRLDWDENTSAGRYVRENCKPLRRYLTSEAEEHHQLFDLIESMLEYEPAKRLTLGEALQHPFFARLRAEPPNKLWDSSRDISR

For the compound `COc1ccnc2ccn(-c3cnc4nc(C)n(Cc5cccc(F)c5)c4c3)c12` [Example 102, 1-(3-fluorobenzyl)-6-(7-methoxy-1H-pyrrolo[3,2-b]pyridin-1-yl)-2-methyl-1H-imidazo[4,5-b]pyridine], the inhibition at 1 µM amounted to 95% in assay [1] and 100% in assay [2].
On the same counts, the results for `COc1ncnn2ccc(-c3cnc4nc(C)n(Cc5cc(C)no5)c4c3)c12` [Example 215] are 95% and 100%.
In the case of `COc1nc2ncc(-n3ccc4ncc(C(C)O)nc43)cc2n1Cc1cccc(F)c1` (stereo not shown) [Example 160, 1-(5-(1-(3-fluorobenzyl)-2-methoxy-1H-imidazo[4,5-b]pyridin-6-yl)-5H-pyrrolo[2,3-b]pyrazin-3-yl)ethanol], the “Cell growth inhibition ratio at compound concentration of 1 μM” value in assay [1] is 98%. In addition, in assay [2], the “CLK2 activity inhibition ratio at compound concentration of 1 μM (ATP 1 mM)” value stood at 100%.
With `COc1ncnn2ccc(-c3cnc4nc(C)n(Cc5nc(C)no5)c4c3)c12` [Example 186, 6-(4-methoxypyrrolo[2,1-f][1,2,4]triazin-5-yl)-2-methyl-1-((3-methyl-1,2,4-oxadiazol-5-yl)methyl)-1H-imidazo[4,5-b]pyridine], the inhibition at 1 µM stood at 96% in assay [1] and 99% in assay [2].
Take `COc1ncnc2ccn(-c3cnc4nc(C)n(Cc5cc(F)cc(F)c5)c4c3)c12` [Example 7, 1-(3,5-difluorobenzyl)-6-(4-methoxy-5H-pyrrolo[3,2-d]pyrimidin-5-yl)-2-methyl-1H-imidazo[4,5-b]pyridine]: the inhibition at 1 µM in assay [1] amounted to 92%; in assay [2] it was 100%.
On the same counts, the results for `COc1ncnn2ccc(-c3cnc4nc(C)n(Cc5nnc(C(C)(C)F)o5)c4c3)c12` [Example 277, 1-((5-(2-fluoropropan-2-yl)-1,3,4-oxadiazol-2-yl)methyl)-6-(4-methoxypyrrolo[2,1-f][1,2,4]triazin-5-yl)-2-methyl-1H-imidazo[4,5-b]pyridine] are 95% and 100%.
On the same counts, the results for `COc1ncnn2ccc(-c3cnc4nc(C)n(Cc5nnc(C6(F)CC6)o5)c4c3)c12` [Example 283, 1-((5-(1-fluorocyclopropyl)-1,3,4-oxadiazol-2-yl)methyl)-6-(4-methoxypyrrolo[2,1-f][1,2,4]triazin-5-yl)-2-methyl-1H-imidazo[4,5-b]pyridine] are 96% and 100%.
On the same counts, the results for `COc1ncnn2ccc(-c3cnc4nc(C)n(Cc5noc(C)n5)c4c3)c12` [Example 214, 6-(4-methoxypyrrolo[2,1-f][1,2,4]triazin-5-yl)-2-methyl-1-((5-methyl-1,2,4-oxadiazol-3-yl)methyl)-1H-imidazo[4,5-b]pyridine] are 96% and 99%.
With `COc1ncnn2ccc(-c3cnc4nc(C)n(Cc5cccc(F)c5)c4c3)c12` [Example 175, 1-(3-fluorobenzyl)-6-(4-methoxypyrrolo[2,1-f][1,2,4]triazin-5-yl)-2-methyl-1H-imidazo[4,5-b]pyridine], the inhibition at 1 µM in assay [1] is 91%; in assay [2], 100%.
As for `COc1ncnn2ccc(-c3cnc4nc(C)n(Cc5nnc(C(F)F)o5)c4c3)c12` [Example 242, 1-((5-(difluoromethyl)-1,3,4-oxadiazol-2-yl)methyl)-6-(4-methoxypyrrolo[2,1-f][1,2,4]triazin-5-yl)-2-methyl-1H-imidazo[4,5-b]pyridine], the results for the inhibition at 1 µM in assay [1] and in assay [2] were 94% and 100%, respectively.
On the same counts, the results for `COc1ncnn2ccc(-c3cnc4nc(C)n(Cc5nnc(C)o5)c4c3)c12` [Example 193, 6-(4-methoxypyrrolo[2,1-f][1,2,4]triazin-5-yl)-2-methyl-1-((5-methyl-1,3,4-oxadiazol-2-yl)methyl)-1H-imidazo[4,5-b]pyridine] are 98% and 100%.
On the same counts, the results for `COc1ncnn2ccc(-c3cnc4nc(CO)n(Cc5cc(F)cc(F)c5)c4c3)c12` [Example 176, (1-(3,5-difluorobenzyl)-6-(4-methoxypyrrolo[2,1-f][1,2,4]triazin-5-yl)-1H-imidazo[4,5-b]pyridin-2-yl)methanol] are 85% and 100%.
On the same counts, the results for `COc1ncnn2ccc(-c3cnc4nc(C)n(Cc5nnc(C(C)(F)F)o5)c4c3)c12` [Example 274] are 93% and 100%.
As for `COc1ncnn2ccc(-c3cnc4nc(C)n(Cc5nc(C)ns5)c4c3)c12` [Example 229, 6-(4-methoxypyrrolo[2,1-f][1,2,4]triazin-5-yl)-2-methyl-1-((3-methyl-1,2,4-thiadiazol-5-yl)methyl)-1H-imidazo[4,5-b]pyridine], the inhibition at 1 µM in assay [1] amounted to 97%; in assay [2], 100%.
On the same counts, the results for `COc1cnc2ccn(-c3cnc4nc(C)n(Cc5cccc(F)c5)c4c3)c2n1` [Example 110, 1-(3-fluorobenzyl)-6-(3-methoxy-5H-pyrrolo[2,3-b]pyrazin-5-yl)-2-methyl-1H-imidazo[4,5-b]pyridine] are 92% and 100%.
On the same counts, the results for `COc1ccnc2cnn(-c3cnc4nc(C)n(Cc5cccc(F)c5)c4c3)c12` [Example 105, 1-(1-(3-fluorobenzyl)-2-methyl-1H-imidazo[4,5-b]pyridin-6-yl)-7-methoxy-1H-pyrazolo[4,3-b]pyridine] are 96% and 100%.
On to `COc1nc2ncc(-n3ccc4ncc(C(C)O)nc43)cc2n1Cc1cccc(F)c1` (stereo not shown) [Example 161, 1-(5-(1-(3-fluorobenzyl)-2-methoxy-1H-imidazo[4,5-b]pyridin-6-yl)-5H-pyrrolo[2,3-b]pyrazin-3-yl)ethanol], for which the inhibition at 1 µM in assay [1] came to 97%; in assay [2], 100%.
